This passage reports plate counts recovered results from US20250040541A1, “AN ANTIMICROBIAL LIQUID COMPOSITION, PROCESS FOR PREPARING THE SAME AND METHOD OF USE THEREOF” (ISP Investments LLC, priority 2021, published 2025).

Type in all cases: cell-based
In test [1] the test system is Gram-positive bacteria (Staphylococcus aureus 6538). The experiment in a line: 28-day double inoculation challenge test in sunscreen emulsion base, Gram-positive inoculum. Here is the method: (§1) The test was conducted in sunscreen emulsion base, pH 7 (Table 3).
(§2) Method: The emulsion was formulated with 2% of the blend #1 or with the appropriate controls, plus water to add up to the 2% of the concentration in the emulsion.
(§3) Briefly, each tested sample was split into three containers to be challenged, respectively, with either of the three classes of common contaminants: Gram-positive bacteria, Gram-negative bacteria, and fungi. Accordingly, three types of inocula were prepared as outlined in the Table 4. The Gram-positive bacterial inoculum consisted of the single microorganism, while the Gram-negative bacterial inoculum and fungal inoculum, each, consisted of more than one species pooled together (Table 4).
(§4) The test samples were spiked with the microbial inoculum on days 0 and 21, with the final concentration of bacteria being 10^6 cfu/g and the final concentration of fungi being 10^5 cfu/g. Inoculated samples were incubated at ambient temperature. On days 2, 7, 21 and 28 the samples were plated to recover viable microorganisms. Letheen Agar was used for the recovery of bacteria and on Potato Dextrose Agar was used for the recovery of fungi.

Test [2] deals with Gram-negative bacteria (Escherichia coli 8739, Pseudomonas aeruginosa 9027, Burkholderia cepacia 25416). As to the kind of experiment: 28-day double inoculation challenge test in sunscreen emulsion base, Gram-negative inoculum. Here is the method:
as §1, §2, §3, §4

Test [3] has as its system Fungi (Candida albicans 10231 and Aspergillus brasiliensis 16404). As to the kind of experiment: 28-day double inoculation challenge test in sunscreen emulsion base, fungal inoculum. Here is the method: as §1, §2, §3, §4
Where [4] appears, read: 0.75% active, 1.25% water in sunscreen emulsion base, pH 7, 2 days.
The mark [5] stands for this setting: 0.75% active, 1.25% water in sunscreen emulsion base, pH 7, 7 days.
The mark [6] stands for this setting: 0.75% active, 1.25% water in sunscreen emulsion base, pH 7, 21 days (before re-inoculation).
[7] abbreviates: 0.75% active, 1.25% water in sunscreen emulsion base, pH 7, 28 days (7 days after re-inoculation).
[8] abbreviates: 0.5% active, […] water in sunscreen emulsion base, pH 6.99, 2 days.
The mark [9] stands for this setting: 0.5% active, […] water in sunscreen emulsion base, pH 6.99, 7 days.
Setting [10] is: 0.5% active, […] water in sunscreen emulsion base, pH 6.99, 21 days (before re-inoculation).
Setting [11] is: 0.5% active, […] water in sunscreen emulsion base, pH 6.99, 28 days (7 days after re-inoculation).

Molecules are shown by their SMILES. Bounds are passed on as bounds.

With `OCCCO` [1,3-Propanediol], the plate counts recovered is recorded as >10^4 cfu/g in test [1] (setting [4]); below 10 cfu/g in test [1] (setting [5]); below 10 cfu/g in test [1] (setting [6]); >10^4 cfu/g in test [2] (setting [4]); below 10 cfu/g in test [2] (setting [5]); below 10 cfu/g in test [2] (setting [6]). Further, the plate counts recovered is listed as 2.00 × 10^2 cfu/g in test [2] (setting [7]); 3.40 × 10^4 cfu/g in test [3] (setting [4]); 1.6 × 10^4 cfu/g in test [3] (setting [5]); 9.5 × 10^4 cfu/g in test [3] (setting [6]); >10^4 cfu/g in test [3] (setting [7]).

As for `OCCCc1ccccc1` [Phenylpropanol], the plate counts recovered in test [1] (setting [4]) is on record as >10^4 cfu/g; in test [1] (setting [5]), below 10 cfu/g; in test [1] (setting [6]), below 10 cfu/g; in test [1] (setting [7]), 1.30 × 10^3 cfu/g; in test [2] (setting [4]), >10^4 cfu/g; in test [2] (setting [5]), >10^4 cfu/g. Besides, the plate counts recovered is recorded as 6.00 × 10^3 cfu/g in test [2] (setting [6]); >10^4 cfu/g in test [2] (setting [7]); 3.70 × 10^4 cfu/g in test [3] (setting [4]); 1.80 × 10^4 cfu/g in test [3] (setting [5]); 4.00 × 10^3 cfu/g in test [3] (setting [6]); >10^4 cfu/g in test [3] (setting [7]).

`CC(=O)CCc1ccc(O)cc1` [Raspberry ketone, 4-(4-hydroxyphenyl) butan-2-one]: the plate counts recovered in test [1] (setting [8]) is recorded as >10^4 cfu/g; in test [1] (setting [9]) it was below 10 cfu/g; in test [1] (setting [10]), below 10 cfu/g; in test [1] (setting [11]) it was 2.1 × 10^2 cfu/g; in test [2] (setting [8]) it was >10^4 cfu/g; in test [2] (setting [9]) it was >10^4 cfu/g. Further, the plate counts recovered was 1.3 × 10^3 cfu/g in test [2] (setting [10]); >10^4 cfu/g in test [2] (setting [11]); 2.4 × 10^4 cfu/g in test [3] (setting [8]); 2.40 × 10^4 cfu/g in test [3] (setting [9]); 4.4 × 10^3 cfu/g in test [3] (setting [10]); >10^4 cfu/g in test [3] (setting [11]).
